Assay results published in US12247010B2, “Tubulin inhibitors” (LIN BIOSCIENCE PTY LTD., priority 2017, dated 2025).

System: U87MG cells
Experiment: Cytotoxicity assay (cell viability, CellTiter 96 Aqueous MTS)
Type: cell-based
Settings: Homo sapiens, U-87 MG, 72 h, 72 hours incubation, starting concentration 50 uM, 9 point half log dilution, average where tested repeatedly
In short: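 U87MG cells plated at 7×10^3 cells/well overnight, then treated 72 h with 9-point half-log dilutions from a 50 uM starting concentration. Viability measured with CellTiter 96 Aqueous MTS; IC50 calculated from viability.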

O=C(CCCc1ccc(-c2ccc3c(c2)OCCO3)cc1)Nc1cccnc1 [Compound 162, 4-(4-(2,3-dihydrobenzo[b][1,4]dioxin-6-yl)phenyl)-N-(pyridin-3-yl)butanamide]
IC50: 0.501 to 1 µM

O=C(CCCc1ccc(-c2ccc3ncccc3c2)cc1)Nc1cccnc1 [Compound 163, N-(pyridin-3-yl)-4-(4-(quinolin-6-yl)phenyl)butanamide]
IC50: < 0.5 µM

Cn1cc2cc(-c3ccc(CCCC(=O)Nc4cccnc4)cc3)ccc2n1 [Compound 164, 4-(4-(2-methyl-2H-indazol-5-yl)phenyl)-N-(pyridin-3-yl)butanamide]
IC50: 0.501 to 1 µM

Cn1cc2c(-c3ccc(CCCC(=O)Nc4cccnc4)cc3)cccc2n1 [Compound 165, 4-(4-(2-methyl-2H-indazol-4-yl)phenyl)-N-(pyridin-3-yl)butanamide]
IC50: 1 to 5 µM

Cn1ncc2ccc(-c3ccc(CCCC(=O)Nc4cccnc4)cc3)cc21 [Compound 166, 4-(4-(1-methyl-1H-indazol-6-yl)phenyl)-N-(pyridin-3-yl)butanamide]
IC50: 1 to 5 µM

COc1ccc(-c2ccc(CCCC(=O)Nc3cccnc3)cc2)cn1 [Compound 167, 4-(4-(6-methoxypyridin-3-yl)phenyl)-N-(pyridin-3-yl)butanamide]
IC50: > 5 µM

COc1ccc(-c2ccc(CCCC(=O)Nc3cccnc3)cc2)cc1OC [Compound 168, 4-(3′,4′-dimethoxy-[1,1′-biphenyl]-4-yl)-N-(pyridin-3-yl)butanamide]
IC50: 1 to 5 µM

Cn1ccc2cc(-c3ccc(CCCC(=O)Nc4cccnc4)cc3)ccc21 [Compound 169, 4-(4-(1-methyl-1H-indol-5-yl)phenyl)-N-(pyridin-3-yl)butanamide]
IC50: 0.501 to 1 µM

O=C(CCCc1ccc(-c2ccc3ocnc3c2)cc1)Nc1cccnc1 [Compound 173, 4-(4-(benzo[d]oxazol-5-yl)phenyl)-N-(pyridin-3-yl)butanamide]
IC50: 0.501 to 1 µM

COc1ccc(F)c(-c2ccc(CCCC(=O)Nc3cccnc3)cc2)c1 [Compound 175, 4-(2′-fluoro-5′-methoxy-[1,1′-biphenyl]-4-yl)-N-(pyridin-3-yl)butanamide]
IC50: 0.501 to 1 µM

O=C(CCCc1ccc(-c2cn[nH]c2)cc1)Nc1cccnc1 [Compound 176, 4-(4-(1H-pyrazol-4-yl)phenyl)-N-(pyridin-3-yl)butanamide]
IC50: > 5 µM

O=C(CCCc1ccc(-c2ccc3c(c2)NC(=O)C3)cc1)Nc1cccnc1 [Compound 177, 4-(4-(2-oxoindolin-6-yl)phenyl)-N-(pyridin-3-yl)butanamide]
IC50: 0.501 to 1 µM

COc1ncccc1-c1ccc(CCCC(=O)Nc2cccnc2)cc1 [Compound 178, 4-(4-(2-methoxypyridin-3-yl)phenyl)-N-(pyridin-3-yl)butanamide]
IC50: > 5 µM

O=C(CCCc1ccc(-c2cc(Cl)ccc2F)cc1)Nc1cccnc1 [Compound 179, 4-(5′-chloro-2′-fluoro-[1,1′-biphenyl]-4-yl)-N-(pyridin-3-yl)butanamide]
IC50: > 5 µM

Cc1c(-c2ccc(CCCC(=O)Nc3cccnc3)cc2)ccc2[nH]ncc12 [Compound 180, 4-(4-(4-methyl-1H-indazol-5-yl)phenyl)-N-(pyridin-3-yl)butanamide]
IC50: < 0.5 µM

O=C(CCCc1ccc(-c2cnc3[nH]ccc3c2)cc1)Nc1cccnc1 [Compound 181, 4-(4-(1H-pyrrolo[2,3-b]pyridin-5-yl)phenyl)-N-(pyridin-3-yl)butanamide]
IC50: < 0.5 µM

O=C(CCCc1ccc(-c2cnc3ccccc3c2)cc1)Nc1cccnc1 [Compound 183, N-(pyridin-3-yl)-4-(4-(quinolin-3-yl)phenyl)butanamide]
IC50: 1 to 5 µM

COc1cccc(-c2ccc(CCCC(=O)Nc3cccnc3)cc2)c1F [Compound 184, 4-(2′-fluoro-3′-methoxy-[1,1′-biphenyl]-4-yl)-N-(pyridin-3-yl)butanamide]
IC50: < 0.5 µM

O=C(CCCc1cccc(-n2cccn2)c1)Nc1cccnc1 [Compound 185, 4-(3-(1H-pyrazol-1-yl)phenyl)-N-(pyridin-3-yl)butanamide]
IC50: > 5 µM

O=C(CCCc1ccc(Cc2ccccc2)cc1)Nc1cccnc1 [Compound 186, 4-(4-benzylphenyl)-N-(pyridin-3-yl)butanamide]
IC50: > 5 µM

O=C(CCCc1ccc(-c2ccc(C(F)(F)F)cc2F)cc1)Nc1cccnc1 [Compound 189, 4-(2′-fluoro-4′-(trifluoromethyl)-[1,1′-biphenyl]-4-yl)-N-(pyridin-3-yl)butanamide]
IC50: 1 to 5 µM

O=C(CCCc1ccc(-c2cc3cccnc3cc2F)cc1)Nc1cccnc1 [Compound 190, 4-(4-(7-fluoroquinolin-6-yl)phenyl)-N-(pyridin-3-yl)butanamide]
IC50: < 0.5 µM

Cc1nn(C)c2ccc(-c3ccc(CCCC(=O)Nc4cccnc4)cc3)cc12 [Compound 191, 4-(4-(1,3-dimethyl-1H-indazol-5-yl)phenyl)-N-(pyridin-3-yl)butanamide]
IC50: 1 to 5 µM

O=C(CCCc1ccc(-c2ccc3nccnc3c2)cc1)Nc1cccnc1 [Compound 192, N-(pyridin-3-yl)-4-(4-(quinoxalin-6-yl)phenyl)butanamide]
IC50: 1 to 5 µM

O=C(CCCc1ccc(-c2cnn(Cc3ccccc3)c2)cc1)Nc1cccnc1 [Compound 193, 4-(4-(1-benzyl-1H-pyrazol-4-yl)phenyl)-N-(pyridin-3-yl)butanamide]
IC50: > 5 µM

O=C(CCCc1ccc(-c2ccc3[nH]cnc3c2)cc1)Nc1cccnc1 [Compound 195, 4-(4-(1H-benzo[d]imidazol-5-yl)phenyl)-N-(pyridin-3-yl)butanamide]
IC50: 0.501 to 1 µM

O=C(CCCc1ccc(-c2ccc3c(c2)CCC(=O)N3)cc1)Nc1cccnc1 [Compound 196, 4-(4-(2-oxo-1,2,3,4-tetrahydroquinolin-6-yl)phenyl)-N-(pyridin-3-yl)butanamide]
IC50: < 0.5 µM

O=C(CCCc1ccc(-c2ccc3nccn3c2)cc1)Nc1cccnc1 [Compound 197, 4-(4-(imidazo[1,2-a]pyridin-6-yl)phenyl)-N-(pyridin-3-yl)butanamide]
IC50: > 5 µM

O=C(CCCc1ccc(-c2ccc(-n3cccn3)cc2)cc1)Nc1cccnc1 [Compound 198, 4-(4′-(1H-pyrazol-1-yl)-[1,1′-biphenyl]-4-yl)-N-(pyridin-3-yl)butanamide]
IC50: 0.501 to 1 µM

Cc1ccc2cc(-c3ccc(CCCC(=O)Nc4cccnc4)cc3)ccc2n1 [Compound 199, 4-(4-(2-methylquinolin-6-yl)phenyl)-N-(pyridin-3-yl)butanamide]
IC50: 0.501 to 1 µM

O=C(CCCc1ccc(-c2cc(C(=O)N3CCOCC3)ccc2F)cc1)Nc1cccnc1 [Compound 200, 4-(2′-fluoro-5′-(morpholine-4-carbonyl)-[1,1′-biphenyl]-4-yl)-N-(pyridin-3-yl)butanamide]
IC50: > 5 µM

O=C(CCCc1ccc(-c2ccncc2)cc1)Nc1cccnc1 [Compound 202, N-(pyridin-3-yl)-4-(4-(pyridin-4-yl)phenyl)butanamide]
IC50: > 5 µM

Cc1nn(C)cc1-c1ccc(CCCC(=O)Nc2cccnc2)cc1 [Compound 203, 4-(4-(1,3-dimethyl-1H-pyrazol-4-yl)phenyl)-N-(pyridin-3-yl)butanamide]
IC50: > 5 µM

O=C(CCCc1ccc(-c2nnco2)cc1)Nc1cccnc1 [Compound 204, 4-(4-(1,3,4-oxadiazol-2-yl)phenyl)-N-(pyridin-3-yl)butanamide]
IC50: 1 to 5 µM

O=C(CCCc1ccc(-c2cnc(N3CCOCC3)nc2)cc1)Nc1cccnc1 [Compound 205, 4-(4-(2-morpholinopyrimidin-5-yl)phenyl)-N-(pyridin-3-yl)butanamide]
IC50: > 5 µM
